Measurements from patent US11339193B2, “CDP protein secretion inhibitors” (KEZAR LIFE SCIENCES, priority 2018, dated 2022).
Numbered stars: 1 amine (or outer) side, 2 acyl side, 3 side chain; on linkers, the order of the positions; unused ones are H or OH. Square brackets hold non-standard residues; d marks the D form. Peptide text beside a SMILES is read from it. Ala(1-cyclohexenyl) = N[C@@H](CC1=CCCCC1)C(=O)O; Butanoyl(2R-oxy,4-CN) = N#CCC[C@@H](O)C(=O)O; X22 = CCCC[C@@H](C)C[C@H](N[*:1])C(=O)[*:2]; Abu(4,4,4-F3) = N[C@@H](CC(F)(F)F)C(=O)O; NMeAla(cPent) = CN[C@@H](CC1CCCC1)C(=O)O; Ala(cPent) = N[C@@H](CC1CCCC1)C(=O)O; NMeCha = CN[C@@H](CC1CCCCC1)C(=O)O; NMeF = CN[C@@H](Cc1ccccc1)C(=O)O; aIle = CC[C@@H](C)[C@H](N)C(=O)O; tBuAla = CC(C)(C)C[C@H](N)C(=O)O; NMeL = CN[C@@H](CC(C)C)C(=O)O; hLeu = CC(C)CC[C@H](N)C(=O)O; NMeA = CN[C@@H](C)C(=O)O; Nle = CCCC[C@H](N)C(=O)O; Nva = CCC[C@H](N)C(=O)O; dLac = C[C@@H](O)C(=O)O

What was measured:
Format in all cases: cell-based
[1] = test system: NCI-H929 multiple myeloma cell line; test: H929 assay (cell viability, Celltiter-Glo); conditions: Homo sapiens, NCI-H929; 48 hours, cell viability; read-out: H929 EC50
Protocol: The human multiple myeloma cell line NCI-H929 was cultured in Advanced RPMI 1640 media (Gibco@) supplemented with 6% fetal bovine serum, 2 mM Glutamine, and 1× Penicillin/Streptomycin. On the day of assay, cells were resuspended in RPMI 1640 media supplemented with 10% fetal bovine serum, 2 mM Glutamine, and 1× Penicillin/Streptmycin and plated in 384-well tissue culture plates and treated with compound dilutions in DMSO/media. Plates were incubated at 37° C., 5% CO2 for 48 hours. After 48 hours, Celltiter-Glo@ (Promega) was added to each well and luciferase signal was quantified using Tecan Infinite M1000 Pro for cell viability determination.

[2] = test system: TNFα-FL/Gaussia Luciferase; test: Dox induced TNFα-FL-Gluc assay; conditions: Flp-In 293 T-REx cells, doxycycline, 24 hours; read-out: TNFa FL Gluc IC50
Source text: Dox Induced TNFα-FL-Gluc Assay
(§1) Flp-In 293 T-REx™ cells were transfected with pcDNA™5/FRT/TO plasmid inserted with cDNA encoding Gaussia Luciferase fused to the 3′ end of cDNA encoding full length TNFα (amino acids 1-233). Transfected cells were selected for resistance to the selectable markers Hygromycin and Blasticidin to create a stable cell line that contained the TNFα-FL/Gaussia Luciferase cDNA insert whose expression was regulated under the T-REx™ system. The day before assay, cells were trypsinized and plated in 384-well tissue culture plates. The next day, compound dilutions in DMSO/media containing doxycycline were added to the wells and incubated at 37° C., 5% CO2.

[3] = test system: PD1-ss+10aa/Gaussia Luciferase; test: Dox induced PD1-ss-Gluc assay; conditions: Flp-In 293 T-REx cells, doxycycline, 24 hours; read-out: PD1ss Gluc IC50
Source text: Dox Induced PD1-ss-Gluc Assay
as §1, with “PD1 signal sequence plus 10 amino” for “full length TNFα (amino”, “(N-[…]-C) (SEQ ID NO:3).” for “1-233).”, “PD1-ss+10aa/Gaussia” for “TNFα-FL/Gaussia”

Row | SMILES | EC50 [1] [nM] | IC50 [2] [nM] | IC50 [3] [nM]
1 | CCCC[C@@H](C)C[C@@H]1NC(=O)[C@H](CC2CCCCC2)N(C)C(=O)[C@H](CC(C)C)NC(=O)[C@H](CC(C)C)N(C)C(=O)[C@H]([C@H](C)CC)NC(=O)[C@@H](CCC#N)OC(=O)[C@H](C)N(C)C1=O [C-62] (cyclo(L[NMeCha][X22][NMeA][Butanoyl(2R-oxy,4-CN)][aIle][NMeL])) | 4220 | 1660 | 277
2 | CCCC[C@@H](C)C[C@@H]1NC(=O)[C@H](CC2CCCCC2)N(C)C(=O)[C@H](CC(C)C)NC(=O)[C@H](CC(C)C)N(C)C(=O)[C@H](C(C)C)NC(=O)[C@@H](CCC#N)OC(=O)[C@H](C)N(C)C1=O [C-20] (cyclo(L[NMeCha][X22][NMeA][Butanoyl(2R-oxy,4-CN)]V[NMeL])) | 5300 | 1680 | 432
3 | CCCC[C@@H](C)C[C@@H]1NC(=O)[C@H](CC2CCCC2)N(C)C(=O)[C@H](CC(C)C)NC(=O)[C@H](CC(C)C)N(C)C(=O)[C@H](C[C@H](C)CCCC)NC(=O)[C@@H](CCC#N)OC(=O)[C@H](C)N(C)C1=O [C-22] (cyclo(L[NMeAla(cPent)][X22][NMeA][Butanoyl(2R-oxy,4-CN)][X22][NMeL])) | 950 | 236 | 115
4 | CC(C)C[C@@H]1NC(=O)[C@H](Cc2ccc3ccccc3c2)N(C)C(=O)[C@H](CC(C)C)NC(=O)[C@H](CC(C)C)N(C)C(=O)[C@H](CC(C)C)NC(=O)[C@@H](CCC#N)OC(=O)[C@H](C)N(C)C1=O [C-66] (HELM PEPTIDE1{L.[CN([C@@H](Cc1ccc2ccccc2c1)C(=O)[*:2])[*:1]].L.[meA].[N#CCC[C@@H](O[*:1])C(=O)[*:2]].L.[meL]}$PEPTIDE1,PEPTIDE1,1:R1-7:R2$$$V2.0) | 8800 | 2800 | 1040
5 | CCCC[C@@H](C)C[C@@H]1NC(=O)[C@@H](CCC#N)OC(=O)[C@H](C)N(C)C(=O)[C@H](CC)NC(=O)[C@H](Cc2ccccc2)N(C)C(=O)[C@H](CC(C)C)NC(=O)[C@H](CC(C)C)N(C)C1=O [C-25] (HELM PEPTIDE1{[Abu].[meA].[N#CCC[C@@H](O[*:1])C(=O)[*:2]].[CCCC[C@@H](C)C[C@H](N[*:1])C(=O)[*:2]].[meL].L.[meF]}$PEPTIDE1,PEPTIDE1,1:R1-7:R2$$$V2.0) | 2360 | 376 | 297
6 | CCCC[C@@H](C)C[C@@H]1NC(=O)[C@H](Cc2ccccc2)N(C)C(=O)[C@H](CC(C)C)NC(=O)[C@H](CC(C)C)N(C)C(=O)[C@H](CC(F)(F)F)NC(=O)[C@@H](CCC#N)OC(=O)[C@H](C)N(C)C1=O [C-09] (cyclo(L[NMeF][X22][NMeA][Butanoyl(2R-oxy,4-CN)][Abu(4,4,4-F3)][NMeL])) | 1820 | 158 | 114
7 | CCCC[C@@H](C)C[C@@H]1NC(=O)[C@H](CC2=CCCC2)N(C)C(=O)[C@H](CC(C)C)NC(=O)[C@H](CC(C)C)N(C)C(=O)[C@H](C[C@H](C)CCCC)NC(=O)[C@@H](CCC#N)OC(=O)[C@H](C)N(C)C1=O [C-23] | 953 | 88 | 66
8 | CCCC[C@@H](C)C[C@@H]1NC(=O)[C@@H](CCC#N)OC(=O)[C@H](C)N(C)C(=O)[C@H](CC(F)(F)F)NC(=O)[C@H](Cc2ccccc2)N(C)C(=O)[C@H](CC(C)C)NC(=O)[C@H](CC(C)C)N(C)C1=O [C-26] (cyclo(L[NMeF][Abu(4,4,4-F3)][NMeA][Butanoyl(2R-oxy,4-CN)][X22][NMeL])) | 1010 | 92 | 59
9 | CCCC[C@@H](C)C[C@@H]1NC(=O)[C@H](Cc2ccccc2)N(C)C(=O)[C@H](CCC)NC(=O)[C@H](CC(C)C)N(C)C(=O)[C@H](C[C@H](C)CCCC)NC(=O)[C@@H](C)OC(=O)[C@H](C)N(C)C1=O [C-04] (cyclo([NMeA][dLac][X22][NMeL][Nva][NMeF][X22])) | 1260 | 104 | 86
10 | CCCC[C@@H](C)C[C@@H]1NC(=O)[C@H](CC2CCCCC2)N(C)C(=O)[C@H](CC(C)C)NC(=O)[C@H](CC(C)C)N(C)C(=O)[C@H](CCC(C)C)NC(=O)[C@@H](CCC#N)OC(=O)[C@H](C)N(C)C1=O [C-60] (cyclo(L[NMeCha][X22][NMeA][Butanoyl(2R-oxy,4-CN)][hLeu][NMeL])) | 4730 | 1120 | 335
11 | CCCC[C@@H](C)C[C@@H]1NC(=O)[C@H](Cc2ccccc2)N(C)C(=O)[C@H](CC(C)C)NC(=O)[C@H](CC(C)C)N(C)C(=O)[C@H](CC)NC(=O)[C@@H](C)OC(=O)[C@H](C)N(C)C1=O [C-06] (HELM PEPTIDE1{[Abu].[meL].L.[meF].[CCCC[C@@H](C)C[C@H](N[*:1])C(=O)[*:2]].[meA].[C[C@@H](O[*:1])C(=O)[*:2]]}$PEPTIDE1,PEPTIDE1,1:R1-7:R2$$$V2.0) | 6710 |  | 
12 | CCCC[C@@H](C)C[C@@H]1NC(=O)[C@H](CC2CCCCC2)N(C)C(=O)[C@H](CC2CCCC2)NC(=O)[C@H](CC(C)C)N(C)C(=O)[C@H](CC(C)C)NC(=O)[C@@H](CCC#N)OC(=O)[C@H](C)N(C)C1=O [C-54] (cyclo([Ala(cPent)][NMeCha][X22][NMeA][Butanoyl(2R-oxy,4-CN)]L[NMeL])) |  |  | 2140
13 | CCCC[C@@H](C)C[C@@H]1NC(=O)[C@H](CC2CCCCC2)N(C)C(=O)[C@H](CC(C)C)NC(=O)[C@H](CC(C)C)N(C)C(=O)[C@H](CC2=CCCCC2)NC(=O)[C@@H](CCC#N)OC(=O)[C@H](C)N(C)C1=O [C-56] (cyclo(L[NMeCha][X22][NMeA][Butanoyl(2R-oxy,4-CN)][Ala(1-cyclohexenyl)][NMeL])) | 1650 | 238 | 94
14 | CCCC[C@@H](C)C[C@@H]1NC(=O)[C@H](Cc2ccccc2)N(C)C(=O)[C@H](CC(C)C)NC(=O)[C@H](CC(C)C)N(C)C(=O)[C@H](C(C)C)NC(=O)[C@@H](C)OC(=O)[C@H](C)N(C)C1=O [C-07] (HELM PEPTIDE1{L.[meF].[CCCC[C@@H](C)C[C@H](N[*:1])C(=O)[*:2]].[meA].[C[C@@H](O[*:1])C(=O)[*:2]].V.[meL]}$PEPTIDE1,PEPTIDE1,1:R1-7:R2$$$V2.0) | 5550 | 1260 | 656
15 | CCCC[C@@H](C)C[C@@H]1NC(=O)[C@H](CC2CCCCC2)N(C)C(=O)[C@H](CC(C)C)NC(=O)[C@H](CC(C)C)N(C)C(=O)[C@H](CCCC)NC(=O)[C@@H](CCC#N)OC(=O)[C@H](C)N(C)C1=O [C-53] (cyclo(L[NMeCha][X22][NMeA][Butanoyl(2R-oxy,4-CN)][Nle][NMeL])) | 5860 | 1560 | 495
16 | CCCC[C@@H](C)C[C@@H]1NC(=O)[C@H](Cc2ccccc2)N(C)C(=O)[C@H](CC(C)C)NC(=O)[C@H](CC(C)C)N(C)C(=O)[C@H](CC(F)(F)F)NC(=O)[C@@H](C)OC(=O)[C@H](C)N(C)C1=O [C-03] (cyclo(L[NMeF][X22][NMeA][dLac][Abu(4,4,4-F3)][NMeL])) | 5070 | 525 | 385
17 | CC(C)C[C@@H]1NC(=O)[C@H](Cc2nc(C(C)(C)C)cs2)N(C)C(=O)[C@H](CC(C)C)NC(=O)[C@H](CC(C)C)N(C)C(=O)[C@H](CC(C)C)NC(=O)[C@@H](CCC#N)OC(=O)[C@H](C)N(C)C1=O [C-68] (HELM PEPTIDE1{L.[meA].[N#CCC[C@@H](O[*:1])C(=O)[*:2]].L.[meL].L.[CN([C@@H](Cc1nc(C(C)(C)C)cs1)C(=O)[*:2])[*:1]]}$PEPTIDE1,PEPTIDE1,1:R1-7:R2$$$V2.0) | 11200 |  | 1060
18 | CCCC[C@@H](C)C[C@@H]1NC(=O)[C@H](CC2CCCCC2)N(C)C(=O)[C@H](CC(C)C)NC(=O)[C@H](CC(C)C)N(C)C(=O)[C@H](CC(C)(C)C)NC(=O)C(CCC#N)OC(=O)[C@H](C)N(C)C1=O (stereo in doubt) [C-52] |  | 5730 | 751
19 | CCCC[C@@H](C)C[C@@H]1NC(=O)[C@H](CC2CCCCC2)N(C)C(=O)[C@H](CC(C)(C)C)NC(=O)[C@H](CC(C)C)N(C)C(=O)[C@H](CC(C)C)NC(=O)[C@@H](CCC#N)OC(=O)[C@H](C)N(C)C1=O [C-63] (cyclo(L[NMeL][tBuAla][NMeCha][X22][NMeA][Butanoyl(2R-oxy,4-CN)])) |  |  | 3050
